What was measured:
Type in all cases: cell-based, rat
Conditions in all cases: primary cultures of cardiomyocytes
Amotl1 = experiment: RT-qPCR control of RNA interference efficiency, Amotl1
Procedure: (§1) cDNAs were reverse transcribed from RNAs extracted in TRIzol from cell cultures and isolated hearts using the Quanti-Tect kit (Qiagen) and Superscript II Reverse Transcriptase (Life Technologies) respectively. Quantitative PCR was carried out on a StepOne System (Life Technologies) using Fast Start SYBR Green Master (Roche). Quantification of gene expression was calculated as R=2^ΔCt(control-target), with Gapdh used as a control. Primers were designed using the NCBI Primer-BLAST software. Primer sequences are listed in Supplementary Table 1.
(§2) Primary cultures of newborn rat cardiomyocytes, performed as previously described^34, were transfected with siRNA at 10 pM using Lipofectamine RNAiMax with silencer-siRNA at 24 h and analysed at 72 h, or 96 h (FIG. 3c). Control (Ambion 4390843), Fat4 (siRNA-1: Ambion s172170, siRNA-2: […], siRNA-3 […]), Amotl1 (siRNA-1: […], siRNA-2: […], siRNA-3: […]), Yap1 (siRNA-1: Ambion s170200, siRNA-2: […], siRNA-3: […]) siRNA were used. Efficiency of the interference was controlled by RT-qPCR. In the figures, Fat4 siRNA is Fat4-siRNA-1, Yap1 siRNA is a pool of siRNA-1 to 3 and Amotl1 siRNA is a pool of siRNA-1 to 3.

Fat4 = experiment: RT-qPCR control of RNA interference efficiency, Fat4
Procedure: as §1, §2

Yap1 = experiment: RT-qPCR control of RNA interference efficiency, Yap1
Procedure: as §1, §2

Substance: Amotl1 siRNA-2: siRNA against rat Amotl1, GAGUAUCUCAGAGGCCUAUTT (chemistry not given here)
- down-regulation of Amotl1 relative to Gapdh transcripts (Amotl1): Efficient down-regulation

Substance: Amotl1 siRNA-3: siRNA against rat Amotl1, CAUCACAUGUCCCAGAAUATT (chemistry not given here)
- down-regulation of Amotl1 relative to Gapdh transcripts (Amotl1): Efficient down-regulation

Substance: Amotl siRNA-1: siRNA against rat Amotl1, AUCUCUACCAUUUGUUGGGTT (chemistry not given here)
- down-regulation of Amotl1 relative to Gapdh transcripts (Amotl1): Efficient down-regulation

Substance: Fat4 siRNA-2: siRNA against rat Fat4, CCUGUACCCUGAGUAUUGATT (chemistry not given here)
- down-regulation of Fat4 relative to Gapdh transcripts (Fat4): Efficient down-regulation

Substance: Fat4 siRNA-3: siRNA against rat Fat4, CCGUCCUUGUGUUUAACGUTT (chemistry not given here)
- down-regulation of Fat4 relative to Gapdh transcripts (Fat4): Efficient down-regulation

Substance: Yap1 siRNA-2: siRNA against rat Yap1, GUCAGAGAUACUUCUUAAATT (chemistry not given here)
- down-regulation of Yap1 relative to Gapdh transcripts (Yap1): Efficient down-regulation

Substance: Yap1 siRNA-3: siRNA against rat Yap1, GGAGAAGUUUACUACAUAATT (chemistry not given here)
- down-regulation of Yap1 relative to Gapdh transcripts (Yap1): Efficient down-regulation

From patent US20160361340A1, “TREATMENT OF CARDIAC DISEASES WITH MODULATORS OF THE HIPPO PATHWAY” (INSTITUT PASTEUR, priority 2014, published 2016)
